In paper PMC7997579, “Synthetic Lethality in Pancreatic Cancer: Discovery of a New RAD51-BRCA2 Small Molecule Disruptor That Inhibits Homologous Recombination and Synergizes with Olaparib” (Journal of Medicinal Chemistry, 2020):

Target: T1, BRC4–RAD51 interaction (Homo sapiens, UniProt Q06609)
T1 construct: purchased Creative Biomart (RAD51); Life Technologies (BRC4 peptide)
T1 sequence (Q06609 1-339): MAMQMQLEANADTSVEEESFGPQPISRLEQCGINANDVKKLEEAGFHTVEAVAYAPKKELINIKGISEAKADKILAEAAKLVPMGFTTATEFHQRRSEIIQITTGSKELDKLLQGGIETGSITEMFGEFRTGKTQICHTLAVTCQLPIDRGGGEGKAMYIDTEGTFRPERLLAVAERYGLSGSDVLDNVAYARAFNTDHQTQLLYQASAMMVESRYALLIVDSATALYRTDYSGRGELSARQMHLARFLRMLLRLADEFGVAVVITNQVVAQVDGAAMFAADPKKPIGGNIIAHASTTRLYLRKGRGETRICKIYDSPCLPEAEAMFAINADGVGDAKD
Experiment: Competitive biochemical ELISA assay (biotinylated BRC4 peptide vs RAD51)
Format: binding
Settings: Table 2, compounds selected for cell-based study; read-out: EC50 ELISA
Experimental: To investigate the mechanism of action of the new dihydroquinolone pyrazoline derivatives, different biological assays were performed. As a primary screening, the ability of compounds 5d–57d to inhibit RAD51-BRCA2 interaction was investigated with a competitive biochemical ELISA assay against the parent compound 4d (Table 1). This assay is effective in evaluating the ability of new molecules to compete with BRC4 to bind to RAD51.[30] […] 18d–21d, 23d, 25d, 30d, and 31d were active at micromolar range, all very similar to the initial hit. […] The replacement of the aromatic ring A in combination with the substitution of the pyrazoline nitrogen with either propionyl or acetyl chain yielded compounds 33d–51d. […] As expected for PPI disruptors, the SARs of the new series of dihydroquinolone pyrazoline were rather complex to rationalize, with many cliffs and spikes that were difficult to understand. […] Accordingly, 4d, 12d, 18d, 20d–23d, 30d, 31d, 33d–36d, 39d, 45d, and 49d were submitted to cell-based study (Table 2).
Competitive ELISA screening assay using biotinylated BRC4 peptide to disrupt the BRC4–RAD51 interaction was performed by modifying the method described by Rajendra et al.[33] BRC4-biotinylated peptide (N-term biotin-[…] from Life Technologies) was used to coat 384-well plates (Nunc). After washing with PBS containing 0.05% Tween-20 (PBST) and blocking with the solution BSA 1% /PBST, overnight hybridization with human RAD51 protein (NP_002866 Creative Biomart, NY) was performed. Test compounds were added in dose response from 0.01 to 100 μM in triplicate with constant DMSO 1%. Antibody raised against RAD51 (Millipore) and HRP-secondary antibody staining to develop the 3,3′,5,5′-tetramethylbenzidine signal (Sigma) quenched with 1 M HCl was used as the assay readout. Colorimetric measure was read on a Victor5 (PerkinElmer) plate reader. BRC4 and Rad51 were included in the assay as positive control. Results were analyzed by using GraphPad software.

Structure (SMILES) | EC50 [µM]
O=C(O)CCC(=O)N1N=C(c2c(-c3ccccc3)c3cc(Cl)ccc3[nH]c2=O)CC1c1ccc(F)cc1 (stereo not drawn) [Compound 4d, 4-(3-(6-Chloro-2-oxo-4-phenyl-1,2-dihydroquinolin-3-yl)-5-(4-fluorophenyl)-4,5-dihydro-1H-pyrazol-1-yl)-4-oxobutanoic Acid] | 16 ± 4

Same assay, conditions: competition with BRC4 for RAD51; triplicate, ± standard deviation; NA = not active; racemic mixtures unless enantiomer named

Structure (SMILES) | EC50 (μM) on ELISA assay
CCn1ncc2cc(C3CC(c4c(-c5ccccc5)c5cc(Cl)ccc5[nH]c4=O)=NN3C(=O)CCC(=O)O)ccc21 (stereo not drawn) [Compound 24d, 4-(3-(6-Chloro-2-oxo-4-phenyl-1,2-dihydroquinolin-3-yl)-5-(1-ethyl-1H-indazol-5-yl)-4,5-dihydro-1H-pyrazol-1-yl)-4-oxobutanoic Acid] | inactive
COc1ccc(C2CC(c3c(-c4ccccc4)c4cc(Cl)ccc4[nH]c3=O)=NN2C(C)=O)cc1 (stereo not drawn) [Compound 38d, 3-(1-Acetyl-5-(4-methoxyphenyl)-4,5-dihydro-1H-pyrazol-3-yl)-6-chloro-4-phenylquinolin-2(1H)-one] | inactive
CCn1cc2cc(C3CC(c4c(-c5ccccc5)c5cc(Cl)ccc5[nH]c4=O)=NN3C(C)=O)ccc2n1 (stereo not drawn) [Compound 48d, 3-(1-Acetyl-5-(2-ethyl-2H-indazol-5-yl)-4,5-dihydro-1H-pyrazol-3-yl)-6-chloro-4-phenylquinolin-2(1H)-one] | inactive
CCCn1cc2cc(C3CC(c4c(-c5ccccc5)c5cc(Cl)ccc5[nH]c4=O)=NN3C(C)=O)ccc2n1 (stereo not drawn) [Compound 50d, 3-(1-Acetyl-5-(2-propyl-2H-indazol-5-yl)-4,5-dihydro-1H-pyrazol-3-yl)-6-chloro-4-phenylquinolin-2(1H)-one] | inactive

Same assay, conditions: competition with BRC4 for RAD51; triplicate, ± standard deviation; NA = not active; racemic mixtures unless enantiomer named; read-out: EC50 (μM) on ELISA assay

Structure (SMILES) | EC50 [µM]
O=C(O)CCC(=O)N1N=C(c2c(-c3ccccc3)c3cc(Cl)ccc3[nH]c2=O)CC1c1ccc(F)cc1 (stereo not drawn) [Compound 4d, 4-(3-(6-Chloro-2-oxo-4-phenyl-1,2-dihydroquinolin-3-yl)-5-(4-fluorophenyl)-4,5-dihydro-1H-pyrazol-1-yl)-4-oxobutanoic Acid] | 16 ± 4
CC(=O)N1N=C(c2c(-c3ccccc3)c3cc(Cl)ccc3[nH]c2=O)CC1c1ccc(F)cc1 (stereo not drawn) [Compound 5d, 3-(1-Acetyl-5-(4-fluorophenyl)-4,5-dihydro-1H-pyrazol-3-yl)-6-chloro-4-phenylquinolin-2(1H)-one] | 50 ± 10
CCC(=O)N1N=C(c2c(-c3ccccc3)c3cc(Cl)ccc3[nH]c2=O)CC1c1ccc(F)cc1 (stereo not drawn) [Compound 6d, 6-Chloro-3-(5-(4-fluorophenyl)-1-propionyl-4,5-dihydro-1H-pyrazol-3-yl)-4-phenylquinolin-2(1H)-one] | 34 ± 3
O=C(O)CCC(=O)N1N=C(c2c(-c3ccccc3)c3cc(Cl)ccc3[nH]c2=O)CC1c1ccc(Cl)cc1 (stereo not drawn) [Compound 11d, 4-(3-(6-Chloro-2-oxo-4-phenyl-1,2-dihydroquinolin-3-yl)-5-(4-chlorophenyl)-4,5-dihydro-1H-pyrazol-1-yl)-4-oxobutanoic Acid] | 59 ± 8
O=C(O)CCC(=O)N1N=C(c2c(-c3ccccc3)c3cc(Cl)ccc3[nH]c2=O)CC1c1ccc(C(F)(F)F)cc1 (stereo not drawn) [Compound 16d, 4-(3-(6-Chloro-2-oxo-4-phenyl-1,2-dihydroquinolin-3-yl)-5-(4-(trifluoromethyl)phenyl)-4,5-dihydro-1H-pyrazol-1-yl)-4-oxobutanoic Acid] | 29 ± 2
O=C(O)CCC(=O)N1N=C(c2c(-c3ccccc3)c3cc(Cl)ccc3[nH]c2=O)CC1c1ccc(-c2ccc(Cl)cc2)cc1 (stereo not drawn) [Compound 19d, 4-(3-(6-Chloro-2-oxo-4-phenyl-1,2-dihydroquinolin-3-yl)-5-(4′-chloro-[1,1′-biphenyl]-4-yl)-4,5-dihydro-1H-pyrazol-1-yl)-4-oxobutanoic Acid] | 25 ± 5
CCn1cc2cc(C3CC(c4c(-c5ccccc5)c5cc(Cl)ccc5[nH]c4=O)=NN3C(=O)CCC(=O)O)ccc2n1 (stereo not drawn) [Compound 25d, 4-(3-(6-Chloro-2-oxo-4-phenyl-1,2-dihydroquinolin-3-yl)-5-(2-ethyl-2H-indazol-5-yl)-4,5-dihydro-1H-pyrazol-1-yl)-4-oxobutanoic Acid] | 28 ± 4
CCCn1cc(-c2ccc(C3CC(c4c(-c5ccccc5)c5cc(Cl)ccc5[nH]c4=O)=NN3C(=O)CCC(=O)O)cc2)cn1 (stereo not drawn) [Compound 32d, 4-(3-(6-Chloro-2-oxo-4-phenyl-1,2-dihydroquinolin-3-yl)-5-(4-(1-propyl-1H-pyrazol-4-yl)phenyl)-4,5-dihydro-1H-pyrazol-1-yl)-4-oxobutanoic Acid] | 65 ± 5
CC(=O)N1N=C(c2c(-c3ccccc3)c3cc(Cl)ccc3[nH]c2=O)CC1c1ccc(Br)cc1 (stereo not drawn) [Compound 37d, 3-(1-Acetyl-5-(4-bromophenyl)-4,5-dihydro-1H-pyrazol-3-yl)-6-chloro-4-phenylquinolin-2(1H)-one] | 38 ± 7
CC(=O)N1N=C(c2c(-c3ccccc3)c3cc(Cl)ccc3[nH]c2=O)CC1c1ccc(-c2ccc(Cl)cc2)cc1 (stereo not drawn) [Compound 42d, 3-(1-Acetyl-5-(4′-chloro-[1,1′-biphenyl]-4-yl)-4,5-dihydro-1H-pyrazol-3-yl)-6-chloro-4-phenylquinolin-2(1H)-one] | 45 ± 8
CC(=O)N1N=C(c2c(-c3ccccc3)c3cc(Cl)ccc3[nH]c2=O)CC1c1ccc(-c2ccc(Br)cc2)cc1 (stereo not drawn) [Compound 43d, 3-(1-Acetyl-5-(4′-bromo-[1,1′-biphenyl]-4-yl)-4,5-dihydro-1H-pyrazol-3-yl)-6-chloro-4-phenylquinolin-2(1H)-one] | 70 ± 15
COc1ccc(-c2ccc(C3CC(c4c(-c5ccccc5)c5cc(Cl)ccc5[nH]c4=O)=NN3C(C)=O)cc2)cc1 (stereo not drawn) [Compound 44d, 3-(1-Acetyl-5-(4′-methoxy-[1,1′-biphenyl]-4-yl)-4,5-dihydro-1H-pyrazol-3-yl)-6-chloro-4-phenylquinolin-2(1H)-one] | 70 ± 6
CCn1ccc2cc(C3CC(c4c(-c5ccccc5)c5cc(Cl)ccc5[nH]c4=O)=NN3C(C)=O)ccc21 (stereo not drawn) [Compound 46d, 3-(1-Acetyl-5-(1-ethyl-1H-indol-5-yl)-4,5-dihydro-1H-pyrazol-3-yl)-6-chloro-4-phenylquinolin-2(1H)-one] | 50 ± 15
CCn1ncc2cc(C3CC(c4c(-c5ccccc5)c5cc(Cl)ccc5[nH]c4=O)=NN3C(C)=O)ccc21 (stereo not drawn) [Compound 47d, 3-(1-Acetyl-5-(1-ethyl-1H-indazol-5-yl)-4,5-dihydro-1H-pyrazol-3-yl)-6-chloro-4-phenylquinolin-2(1H)-one] | 40 ± 3
CCCn1cc(-c2ccc(C3CC(c4c(-c5ccccc5)c5cc(Cl)ccc5[nH]c4=O)=NN3C(C)=O)cc2)cn1 (stereo not drawn) [Compound 51d, 3-(1-Acetyl-5-(4-(1-propyl-1H-pyrazol-4-yl)phenyl)-4,5-dihydro-1H-pyrazol-3-yl)-6-chloro-4-phenylquinolin-2(1H)-one] | 46 ± 9

Test system: homologous recombination in BxPC3 cells
Experiment: Homologous recombination assay (two-plasmid recombination, real-time PCR)
Format: cell-based, human
Settings: Homo sapiens, BXPC-3; 40 μM, BxPC3, 5 h during plasmid transfection
Text: Our working hypothesis is that compounds disrupting RAD51-BRCA2 interaction should affect HR repair and increase the efficacy of PARPi in treating breast, ovarian, and pancreatic cancer. For its clinical relevance, pancreatic adenocarcinoma was selected as our final model for cell-based experiments, and BxPC3 cells were selected for a straightforward comparison with the previously reported triazole derivatives.[30],[31] BxPC3 is derived from a human adenocarcinoma that expresses fully functional BRCA2.[38] As shown in Table 2 and according to the rationale of our hypothesis, our preliminary screening consisted of verifying the efficacy of compounds in inhibiting cell HR and/or in increasing the antiproliferative effect of olaparib. […] HR activity was assessed by evaluating the recombination rate between two transfected plasmids, using a commercially available assay. […] As for the emissucinic acid-containing compounds (4d, 12d, 18d, 20d–23d, 30d, 31d), one of the reasons for their lower potency in cells might be the general poor permeability, likely related to the ionizable acid moiety. […] We then characterized 35d in additional biophysical and cell-based experiments.
Homologous recombination (HR) was assessed by using a commercially available assay (Norgen). This assay is based on cell transfection with two plasmids that, upon cell entry, recombine. The efficiency of HR can be assessed by real-time PCR, using primer mixtures included in the assay kit. Different primer mixtures allow one to discriminate between the original plasmid backbones and their recombination product.
BxPC3 cells (2 × 10^5 per well) were seeded in a 24-well plate and allowed to adhere overnight. Co-transfection with the two plasmids was performed in Lipofectamine 2000 (Invitrogen) according to the manufacturer’s instructions. During transfection (5 h), cells were exposed to different doses of RAD51-BRCA2 disruptors, dissolved in RPMI in the presence of 0.6% DMSO. After washing with PBS, cells were harvested, and DNA was isolated using Illustra Tissue and Cell Genomic Prep Mini Spin kit (GE Healthcare). Sample concentration was measured using an ONDA Nano Genius photometer. The efficiency of HR was assessed by real-time PCR, using 25 ng of template, the primer mixtures included in the assay kit and following the protocol indicated by the manufacturer. Data analysis was based on the ΔΔCt method: [recombination product/backbone plasmids]^treated versus [recombination product/backbone plasmids]^control.

Structure (SMILES) | inhibition at 40 µM [%]
O=C(O)CCC(=O)N1N=C(c2c(-c3ccccc3)c3cc(Cl)ccc3[nH]c2=O)CC1c1ccc(F)cc1 (stereo not drawn) [Compound 4d, 4-(3-(6-Chloro-2-oxo-4-phenyl-1,2-dihydroquinolin-3-yl)-5-(4-fluorophenyl)-4,5-dihydro-1H-pyrazol-1-yl)-4-oxobutanoic Acid] | 10
